According to patent US9175011B2, “Morpholino substituted urea or carbamate derivatives as MTOR inhibitors” (CELLZOME LIMITED, priority 2011, dated 2015):

What was measured:
[1] = target: T1, DNA-dependent protein kinase (DNA-PK) (Homo sapiens, UniProt P78527); assay: kinobeads assay, DNA-PK; assay type: binding; conditions: Jurkat cell lysate, read-out: Inhibition values (IC50) DNA-PK
T1 construct: Jurkat cells were homogenized in a Potter S homogenizer in lysis buffer; endogenous in cells; host or cells: Jurkat, clone E6-1 (ATCC TIB-152) lysate
Method: (§1) The compounds of the present invention as described were tested in the mTOR kinobeads assay as described below. Briefly, test compounds (at various concentrations) and the affinity matrix (1:1 mixture of beads with immobilized phenylthiazole ligand 1 and beads with immobilized phenylmorpholin-chromen ligand; WO 2009/098021) were added to cell lysate aliquots and allowed to bind to the proteins in the lysate sample. After the incubation time the beads with captured proteins were separated from the lysate. Bound proteins were then eluted and the presence of mTOR, PI3K alpha (PI3Kα), PI3K beta (PI3Kb), PI3K gamma (PI3Kg), PI3K delta (PI3Kd) and DNA-dependent protein kinase (DNA-PK) was detected and quantified using a specific antibody in a dot blot procedure and the Odyssey infrared detection system. Dose response curves for individual kinases were generated and IC50 values calculated. Kinobeads assays for PI3 kinases (WO-A 2008/015013) and for kinase selectivity profiling (WO 2009/098021) have been previously described.
(§2) The affinity matrix (beads with immobilized phenylmorpholin-chromen ligand) was washed three times with 15 ml of 1×DP buffer containing 0.2% NP40 (IGEPAL® CA-630, Sigma, #13021) and then resuspended in 5.5 ml of 1×DP buffer containing 0.2% NP40 (10% beads slurry).
(§3) 5×DP buffer: 250 mM Tris-HCl pH 7.4, 25% Glycerol, 7.5 mM MgCl2, 750 mM NaCl, 5 mM Na3VO4, filter the 5×-lysis buffer through 0.22 μm filter and store in aliquots at −80° C. The 5×DP buffer is diluted to 1×DP buffer containing 1 mM DTT and 25 mM NaF.
(§4) Stock solutions of test compounds were prepared in DMSO. In a 96 well plate 30 μl solution of diluted test compounds at 5 mM in DMSO were prepared. Starting with this solution a 1:3 dilution series (9 steps) was prepared. For control experiments (no test compound) a buffer containing 2% DMSO was used. Compound PI-103 served as a positive control (Calbiochem catalogue number 528100).
(§5) Jurkat cells (ATCC catalogue number TIB-152 Jurkat, clone E6-1) were grown in 1 liter Spinner flasks (Integra Biosciences, #182101) in suspension in RPMI 1640 medium (Invitrogen, #21875-034) supplemented with 10% Fetal Bovine Serum (Invitrogen) at a density between 0.15×10^6 and 1.2×10^6 cells/ml. Cells were harvested by centrifugation, washed once with 1×PBS buffer (Invitrogen, #14190-094) and cell pellets were frozen in liquid nitrogen and subsequently stored at −80° C.
(§6) Jurkat cells were homogenized in a Potter S homogenizer in lysis buffer: 50 mM Tris-HCl, 0.8% NP40, 5% glycerol, 150 mM NaCl, 1.5 mM MgCl2, 25 mM NaF, 1 mM sodium vanadate, 1 mM DTT, pH 7.5. One complete EDTA-free tablet (protease inhibitor cocktail, Roche Diagnostics, 1873580) per 25 ml buffer was added. The material was dounced 10 times using a mechanized POTTER S, transferred to 50 ml falcon tubes, incubated for 30 minutes on ice and spun down for 10 min at 20,000 g at 4° C. (10,000 rpm in Sorvall SLA600, precooled). The supernatant was transferred to an ultracentrifuge (UZ)-polycarbonate tube (Beckmann, 355654) and spun for 1 hour at 100.000 g at 4° C. (33.500 rpm in Ti50.2, precooled). The supernatant was transferred again to a fresh 50 ml falcon tube, the protein concentration was determined by a Bradford assay (BioRad) and samples containing 50 mg of protein per aliquot were prepared. The samples were immediately used for experiments or frozen in liquid nitrogen and stored frozen at −80° C.
(§7) Jurkat cell lysate (approximately 50 mg protein per plate) was thawed in a water bath at room temperature and then kept on ice. To the thawed cell lysate 1×DP 0.8% NP40 buffer containing protease inhibitors (1 tablet for 25 ml buffer; EDTA-free protease inhibitor cocktail; Roche Diagnostics 1873580) was added in order to reach a final protein concentration of 5 mg/ml total protein. The diluted cell lysate was stored on ice. […]

[2] = target: T2, PI3K gamma (PI3Kg) (Homo sapiens, UniProt P48736); assay: kinobeads assay, PI3K gamma; assay type: binding; conditions: Jurkat cell lysate, read-out: Inhibition values (IC50) PI3Kg
T2 construct: Jurkat cells were homogenized in a Potter S homogenizer in lysis buffer; endogenous in cells; host or cells: Jurkat, clone E6-1 (ATCC TIB-152) lysate
Method: as §1, §2, §3, §4, §5, §6, §7

[3] = target: T3, mTOR (Homo sapiens, UniProt P42345); assay: mTOR kinobeads assay (Jurkat cell lysate, dot blot detection); assay type: binding; conditions: read-out: Inhibition values (IC50) mTor
T3 construct: Jurkat cells were homogenized in a Potter S homogenizer in lysis buffer; endogenous in cells; host or cells: Jurkat, clone E6-1 (ATCC TIB-152) lysate
Method: as §1, §2, §3, §4, §5, §6, §7

[4] = target: T4, PI3K alpha (PI3Kα) (Homo sapiens, UniProt P42336); assay: kinobeads assay, PI3K alpha; assay type: binding; conditions: Jurkat cell lysate, read-out: Inhibition values (IC50) PI3Ka
T4 construct: Jurkat cells were homogenized in a Potter S homogenizer in lysis buffer; endogenous in cells; host or cells: Jurkat, clone E6-1 (ATCC TIB-152) lysate
Method: as §1, §2, §3, §4, §5, §6, §7

[5] = system: S6RP serine-240/244 phosphorylation; assay: In vitro phospho-S6 cellular assay (HEK293T/17); assay type: cell-based; conditions: Homo sapiens; HEK293T/17 cells, 2 hours, pS6RP Ser240/244; read-out: Inhibition values (IC50) pS6
Text: Activation of mTOR signaling results in phosphorylation of several downstream targets. In cells, mTOR exists in two different protein complexes. The mTOR Complex-1 (mTORC1) phosphorylates and activates S6 Kinase 1 (S6K1) and S6 Kinase 2 (S6K2) (also known as p70S6K) which then phosphorylate S6 Ribosomal Protein (S6RP) (also known as RPS6)3. S6RP is phosphorylated on serine 235, senile 236, serine 240 and serine 244 by both pS6K1 and pS6K2. The mTOR Complex-2 (mTORC2) phosphorylates AKT on serine 473 which activates the AKT signaling pathway.
The assay measures a test compound's inhibition of S6RP serine-240/244 phosphorylation and inhibition of Akt serine-473 phosphorylation in human embryonic kidney derived HEK293T/17 cells (ATCC CRL-11268).
The HEK293T/17 cell line is maintained in DMEM media (Invitrogen catalogue number 41965-039) supplemented with 10% FCS at 37° C. in a 5% CO2 humidified incubator. Cells are seeded in 96-well plates at 40,000 cells/well (pS6RP S240/244 assay) or 80,000 cells/well (pAkt 5473 assay) in 90 μl growth media (DMEM, 2% FCS). Plates are incubated for 1 hour in a humidified incubator to allow the cells to adhere. Cells are treated with 8 concentrations of test compounds or DMSO alone for controls (final DMSO concentration 0.1%) and incubated at 37° C. for 2 hours. Then 20 μl of 5× concentrated lysis buffer (750 mM NaCl, 100 mM Tris pH7.4, 5 mM ADTA, 5 mM EGTA, 5% Triton X-100) is added, plates are sealed and incubated for 15 minutes at 4° C. with gentle shaking After cell lysis, 25 μl cell lysate is transferred to a MesoScale plate coated with an antibody to pS6RP Ser240/244 (MesoScale Discovery K150DGD-3) or an antibody to pAkt Ser 473 (MesoScale Discovery K151DGD-3). Plates have been blocked before by incubation with 150 μl MesoScale Discovery Blocking Solution-A for 1 hour at room temperature followed by washing with 150 μl 1×Tris wash buffer per well. After the transfer of the cell lysate to the MSD plate, the pS6RP (or pAkt) protein is captured on the coated antibody by incubation at room temperature for 1 hour with gentle shaking. After the capture step the plate is washed three times with 150 μl of 1× Tris wash buffer per well. Then 25 μl detection antibody conjugated with a Sulfo-Tag is added and incubated for 1 hour at room temperature with gentle shaking. Subsequently the antibody solution is removed and the plate is washed 3 times with 150 μl 1×Tris wash buffer per well and 150 μl Read buffer is added. The plates are analysed on a MSD 2400 Plate Reader (MesoScale Discovery). Data analysis is performed using nonlinear regression for a sigmoidal dose-response with a variable slope.

[6] = target: T5, PI3K delta (PI3Kd) (Homo sapiens, UniProt O00329); assay: kinobeads assay, PI3K delta; assay type: binding; conditions: Jurkat cell lysate, read-out: Inhibition values (IC50) PI3Kd
T5 construct: Jurkat cells were homogenized in a Potter S homogenizer in lysis buffer; endogenous in cells; host or cells: Jurkat, clone E6-1 (ATCC TIB-152) lysate
Method: as §1, §2, §3, §4, §5, §6, §7

[7] = target: T6, PI3K beta (PI3Kb) (Homo sapiens, UniProt P42338); assay: kinobeads assay, PI3K beta; assay type: binding; conditions: Jurkat cell lysate, read-out: Inhibition values (IC50) PI3Kb
T6 construct: Jurkat cells were homogenized in a Potter S homogenizer in lysis buffer; endogenous in cells; host or cells: Jurkat, clone E6-1 (ATCC TIB-152) lysate
Method: as §1, §2, §3, §4, §5, §6, §7

T5 sequence (O00329 whole entry): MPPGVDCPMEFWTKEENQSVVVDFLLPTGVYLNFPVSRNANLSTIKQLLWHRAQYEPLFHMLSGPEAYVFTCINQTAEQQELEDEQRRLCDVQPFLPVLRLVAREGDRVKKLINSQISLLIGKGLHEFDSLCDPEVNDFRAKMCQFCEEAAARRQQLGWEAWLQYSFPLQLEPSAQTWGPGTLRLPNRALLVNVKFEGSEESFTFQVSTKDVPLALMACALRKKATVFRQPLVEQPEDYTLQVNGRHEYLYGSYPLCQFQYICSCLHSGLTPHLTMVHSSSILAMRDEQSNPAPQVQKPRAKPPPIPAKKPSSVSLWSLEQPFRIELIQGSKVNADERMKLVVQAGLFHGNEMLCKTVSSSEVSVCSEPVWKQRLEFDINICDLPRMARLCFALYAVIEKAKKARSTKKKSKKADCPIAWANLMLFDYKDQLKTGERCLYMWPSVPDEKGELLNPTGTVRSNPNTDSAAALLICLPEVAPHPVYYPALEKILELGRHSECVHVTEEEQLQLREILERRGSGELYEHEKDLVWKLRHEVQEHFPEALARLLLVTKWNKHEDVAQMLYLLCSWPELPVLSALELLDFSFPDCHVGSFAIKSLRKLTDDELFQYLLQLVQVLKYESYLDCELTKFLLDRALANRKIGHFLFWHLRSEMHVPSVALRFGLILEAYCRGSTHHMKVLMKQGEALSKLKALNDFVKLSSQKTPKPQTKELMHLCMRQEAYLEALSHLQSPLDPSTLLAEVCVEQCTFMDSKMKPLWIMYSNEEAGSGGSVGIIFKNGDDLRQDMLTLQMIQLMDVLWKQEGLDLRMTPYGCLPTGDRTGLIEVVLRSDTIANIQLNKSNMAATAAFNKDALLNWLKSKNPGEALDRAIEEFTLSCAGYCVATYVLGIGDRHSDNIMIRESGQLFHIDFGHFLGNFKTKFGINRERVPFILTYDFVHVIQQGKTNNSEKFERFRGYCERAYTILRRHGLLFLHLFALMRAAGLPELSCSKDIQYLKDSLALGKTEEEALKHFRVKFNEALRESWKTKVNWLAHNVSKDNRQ
T5 sequence (P27986 whole entry partner): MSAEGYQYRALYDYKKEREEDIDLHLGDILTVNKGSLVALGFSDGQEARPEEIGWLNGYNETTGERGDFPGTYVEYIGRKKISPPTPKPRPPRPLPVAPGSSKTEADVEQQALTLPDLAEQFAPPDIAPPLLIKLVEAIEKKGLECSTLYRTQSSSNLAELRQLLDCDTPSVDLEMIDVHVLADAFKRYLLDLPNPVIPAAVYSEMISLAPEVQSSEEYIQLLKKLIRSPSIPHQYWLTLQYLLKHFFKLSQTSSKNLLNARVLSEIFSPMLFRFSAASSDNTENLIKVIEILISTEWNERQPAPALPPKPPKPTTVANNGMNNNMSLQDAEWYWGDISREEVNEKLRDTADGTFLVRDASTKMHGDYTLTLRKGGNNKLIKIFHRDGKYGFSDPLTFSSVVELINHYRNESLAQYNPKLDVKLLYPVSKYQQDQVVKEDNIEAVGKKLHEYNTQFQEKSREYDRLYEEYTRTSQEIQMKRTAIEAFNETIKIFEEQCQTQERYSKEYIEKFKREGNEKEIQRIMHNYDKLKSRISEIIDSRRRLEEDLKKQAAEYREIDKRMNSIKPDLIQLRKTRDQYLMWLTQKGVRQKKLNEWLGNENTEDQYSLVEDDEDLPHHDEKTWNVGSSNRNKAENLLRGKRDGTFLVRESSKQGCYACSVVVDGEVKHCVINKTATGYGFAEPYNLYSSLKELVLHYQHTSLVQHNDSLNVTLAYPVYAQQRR
T4 sequence (P42336 whole entry): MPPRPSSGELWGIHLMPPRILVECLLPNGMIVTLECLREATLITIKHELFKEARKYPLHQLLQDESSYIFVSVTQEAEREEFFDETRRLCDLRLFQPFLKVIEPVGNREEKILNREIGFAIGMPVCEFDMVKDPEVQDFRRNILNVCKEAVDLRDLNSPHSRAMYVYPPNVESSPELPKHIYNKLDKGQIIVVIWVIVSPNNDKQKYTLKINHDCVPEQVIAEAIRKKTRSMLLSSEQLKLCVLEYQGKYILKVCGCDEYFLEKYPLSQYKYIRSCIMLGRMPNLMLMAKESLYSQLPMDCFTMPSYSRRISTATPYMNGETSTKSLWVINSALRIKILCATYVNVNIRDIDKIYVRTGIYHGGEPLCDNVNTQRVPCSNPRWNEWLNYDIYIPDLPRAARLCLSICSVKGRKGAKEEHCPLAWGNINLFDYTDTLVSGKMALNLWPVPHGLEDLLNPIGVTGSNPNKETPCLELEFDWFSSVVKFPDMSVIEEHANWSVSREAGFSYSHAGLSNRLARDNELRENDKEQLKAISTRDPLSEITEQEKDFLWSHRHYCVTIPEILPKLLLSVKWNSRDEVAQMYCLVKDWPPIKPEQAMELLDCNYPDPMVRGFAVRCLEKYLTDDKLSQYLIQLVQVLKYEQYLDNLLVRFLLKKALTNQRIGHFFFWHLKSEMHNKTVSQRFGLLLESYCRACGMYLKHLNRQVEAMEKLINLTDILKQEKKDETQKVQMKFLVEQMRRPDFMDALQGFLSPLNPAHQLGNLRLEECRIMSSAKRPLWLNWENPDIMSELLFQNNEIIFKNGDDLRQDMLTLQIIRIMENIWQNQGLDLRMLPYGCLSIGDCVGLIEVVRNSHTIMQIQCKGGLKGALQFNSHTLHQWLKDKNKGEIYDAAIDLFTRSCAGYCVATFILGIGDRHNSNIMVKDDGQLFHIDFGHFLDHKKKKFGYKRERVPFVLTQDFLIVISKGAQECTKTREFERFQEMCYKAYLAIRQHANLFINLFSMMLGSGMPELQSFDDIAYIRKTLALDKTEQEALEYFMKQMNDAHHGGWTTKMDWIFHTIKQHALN
T4 sequence (P27986 whole entry partner): as the sequence (P27986 whole entry partner) above
T2 sequence (P48736 whole entry): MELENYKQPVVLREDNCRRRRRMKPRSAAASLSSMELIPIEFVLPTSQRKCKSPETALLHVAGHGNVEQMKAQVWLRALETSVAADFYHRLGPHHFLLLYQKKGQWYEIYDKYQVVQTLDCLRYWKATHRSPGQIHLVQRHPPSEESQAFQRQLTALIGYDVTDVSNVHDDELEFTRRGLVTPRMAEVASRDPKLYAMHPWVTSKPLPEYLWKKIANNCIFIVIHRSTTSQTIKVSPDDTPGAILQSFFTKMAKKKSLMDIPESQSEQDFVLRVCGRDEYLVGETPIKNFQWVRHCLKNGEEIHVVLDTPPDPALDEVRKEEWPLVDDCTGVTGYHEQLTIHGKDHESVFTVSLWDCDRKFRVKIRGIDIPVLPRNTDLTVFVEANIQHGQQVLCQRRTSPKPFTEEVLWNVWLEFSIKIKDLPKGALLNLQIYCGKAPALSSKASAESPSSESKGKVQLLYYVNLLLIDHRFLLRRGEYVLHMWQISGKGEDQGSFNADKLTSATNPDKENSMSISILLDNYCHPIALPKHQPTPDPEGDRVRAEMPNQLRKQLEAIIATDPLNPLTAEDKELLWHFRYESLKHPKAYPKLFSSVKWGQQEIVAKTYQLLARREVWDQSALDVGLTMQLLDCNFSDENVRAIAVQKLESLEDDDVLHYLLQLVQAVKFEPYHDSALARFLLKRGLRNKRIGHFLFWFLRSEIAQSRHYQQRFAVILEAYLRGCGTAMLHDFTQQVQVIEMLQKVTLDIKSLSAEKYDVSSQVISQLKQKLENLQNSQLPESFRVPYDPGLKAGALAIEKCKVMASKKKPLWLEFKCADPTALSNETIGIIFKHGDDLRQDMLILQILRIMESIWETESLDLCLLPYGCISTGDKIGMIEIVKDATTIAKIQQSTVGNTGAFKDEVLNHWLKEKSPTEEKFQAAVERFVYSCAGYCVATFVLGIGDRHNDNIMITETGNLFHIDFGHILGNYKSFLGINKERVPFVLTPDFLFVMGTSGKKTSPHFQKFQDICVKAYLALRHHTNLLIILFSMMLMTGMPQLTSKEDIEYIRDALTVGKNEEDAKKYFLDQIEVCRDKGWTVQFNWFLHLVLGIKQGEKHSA
T6 sequence (P42338 whole entry): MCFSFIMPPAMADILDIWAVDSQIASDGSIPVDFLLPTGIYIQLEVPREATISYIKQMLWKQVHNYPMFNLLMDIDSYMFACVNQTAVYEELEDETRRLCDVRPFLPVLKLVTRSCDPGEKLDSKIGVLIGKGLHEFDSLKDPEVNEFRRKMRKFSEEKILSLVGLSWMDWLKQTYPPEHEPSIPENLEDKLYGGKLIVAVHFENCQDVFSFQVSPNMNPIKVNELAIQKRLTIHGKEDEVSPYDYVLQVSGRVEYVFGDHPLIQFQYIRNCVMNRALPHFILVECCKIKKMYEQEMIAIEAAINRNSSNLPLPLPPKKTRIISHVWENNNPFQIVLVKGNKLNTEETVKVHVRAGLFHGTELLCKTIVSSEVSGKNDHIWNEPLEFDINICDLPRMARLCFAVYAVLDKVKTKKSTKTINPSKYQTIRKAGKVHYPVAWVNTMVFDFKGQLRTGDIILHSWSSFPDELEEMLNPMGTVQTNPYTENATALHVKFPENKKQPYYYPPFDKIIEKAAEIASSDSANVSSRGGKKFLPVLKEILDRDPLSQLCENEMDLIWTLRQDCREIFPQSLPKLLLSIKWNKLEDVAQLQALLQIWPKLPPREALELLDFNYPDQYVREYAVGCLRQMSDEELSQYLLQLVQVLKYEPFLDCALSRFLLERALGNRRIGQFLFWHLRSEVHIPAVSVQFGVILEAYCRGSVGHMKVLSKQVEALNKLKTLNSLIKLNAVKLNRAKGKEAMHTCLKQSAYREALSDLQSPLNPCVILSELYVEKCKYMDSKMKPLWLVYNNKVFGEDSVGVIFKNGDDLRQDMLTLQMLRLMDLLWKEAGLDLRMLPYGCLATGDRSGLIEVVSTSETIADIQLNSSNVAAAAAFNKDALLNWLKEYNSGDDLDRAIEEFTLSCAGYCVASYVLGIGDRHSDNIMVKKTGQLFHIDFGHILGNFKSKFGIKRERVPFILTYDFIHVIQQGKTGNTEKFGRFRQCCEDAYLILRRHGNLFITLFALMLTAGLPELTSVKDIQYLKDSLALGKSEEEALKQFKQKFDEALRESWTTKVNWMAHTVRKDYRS
T6 sequence (P27986 whole entry partner): as the sequence (P27986 whole entry partner) above

Compound	IC50 [1] [µM]	IC50 [2] [µM]	IC50 [3] [nM]	IC50 [4] [µM]	IC50 [5] [nM]	IC50 [6] [µM]	IC50 [7] [µM]
CC(C)NC(=O)Nc1ccc(-c2nc(-c3ccccc3S(C)(=O)=O)nc(N3CCOC[C@@H]3C)n2)cc1 [Example 15, (S)-1-isopropyl-3-(4-(4-(3-methylmorpholino)-6-(2-(methylsulfonyl)phenyl)-1,3,5-triazin-2-yl)phenyl)urea]	> 10	> 10	100 to 1000	> 10	< 100	> 10	> 10
CS(=O)(=O)c1ccccc1-c1nc(-c2ccc(NC(=O)NC3CC3)cc2)nc(N2C3CCC2COC3)n1 [Example 16, 1-(4-(4-(3-oxa-8-azabicyclo[3.2.1]octan-8-yl)-6-(2-(methylsulfonyl)phenyl)-1,3,5-triazin-2-yl)phenyl)-3-cyclopropylurea]	> 10	> 10	100 to 1000	> 10	< 100	> 10	> 10
CCS(=O)(=O)c1ccccc1-c1nc(-c2ccc(NC(=O)NC3CC3)cc2)nc(N2CCOC[C@@H]2C)n1 [Example 17, (S)-1-cyclopropyl-3-(4-(4-(2-(ethylsulfonyl)phenyl)-6-(3-methylmorpholino)-1,3,5-triazin-2-yl)phenyl)urea]	> 10	> 10	100 to 1000	> 10	< 100	> 10	> 10
CCCNC(=O)Nc1ccc(-c2nc(-c3ccccc3S(C)(=O)=O)nc(N3CCOC[C@@H]3C)n2)cc1 [Example 18, (S)-1-(4-(4-(3-methylmorpholino)-6-(2-(methylsulfonyl)phenyl)-1,3,5-triazin-2-yl)phenyl)-3-propylurea]	> 10	> 10	100 to 1000	> 10	< 100	> 10	> 10
CC(C)CNC(=O)Nc1ccc(-c2nc(-c3ccccc3S(C)(=O)=O)nc(N3CCOC[C@@H]3C)n2)cc1 [Example 19, (S)-1-isobutyl-3-(4-(4-(3-methylmorpholino)-6-(2-(methylsulfonyl)phenyl)-1,3,5-triazin-2-yl)phenyl)urea]	> 10	> 10	1000 to 10000	> 10	100 to 1000	> 10	> 10
C[C@H]1COCCN1c1nc(-c2ccc(NC(=O)NC3CCCC3)cc2)nc(-c2ccccc2S(C)(=O)=O)n1 [Example 20, (S)-1-cyclopentyl-3-(4-(4-(3-methylmorpholino)-6-(2-(methylsulfonyl)phenyl)-1,3,5-triazin-2-yl)phenyl)urea]	1 to 10	> 10	100 to 1000	1 to 10	< 100	> 10	1 to 10
CS(=O)(=O)c1ccccc1-c1nc(-c2ccc(NC(=O)NC3CC3)cc2)nc(N2CCCOCC2)n1 [Example 21, 1-cyclopropyl-3-(4-(4-(2-(methylsulfonyl)phenyl)-6-(1,4-oxazepan-4-yl)-1,3,5-triazin-2-yl)phenyl)urea]	> 10	> 10	100 to 1000	> 10	100 to 1000	> 10	> 10
CC1(C)COCCN1c1nc(-c2ccc(NC(=O)NC3CC3)cc2)nc(-c2ccccc2S(C)(=O)=O)n1 [Example 22, 1-cyclopropyl-3-(4-(4-(3,3-dimethylmorpholino)-6-(2-(methylsulfonyl)phenyl)-1,3,5-triazin-2-yl)phenyl)urea]	> 10	> 10	100 to 1000	> 10	< 100	> 10	> 10
